The results in this text go back to patent US20110081362A1, “TREATMENT OF CANCER” (THE BRIGHAM AND WOMEN'S HOSPITAL, INC., priority 2008, published 2011).

Holding throughout (format): cell-based, human
Assay [1] relates to DLD-1 Ras Mut cells vs DLD-1 Ras WT cells. Description: Competition assay, GFP-labeled Ras Mut vs Ras WT cells, FACS. To be noted: for Viability/fitness of Ras Mut cells after transient treatment: DLD-1, 24 hours treatment, drug washed out, 3 additional days before FACS; for Fitness of Ras Mut cells relative to Ras WT cells (synthetic lethality with mutant Ras): DLD-1 isogenic pair, drug present for 4-5 days. As to the method:
E. Schematic of the competition assay used to validate shRNAs from the primary screen. Ras Mut cells expressing GFP and Ras WT cells were mixed and co-infected with the same retroviral shRNA. The Mut to WT cell ratio at the end of the experiment is measured by FACS. The percentage of Ras Mut cells in the mixture infected with a candidate RSL shRNA was normalized against that of a control shRNA targeting firefly luciferase (FF) within the same experiment to generate a normalized fitness score for the Ras Mut cells. Variations of this assay are also used to test the effect of siRNAs and chemical inhibitors.
Next, a competition assay was devised to test the reproducibility of candidate RSL shRNAs from the primary screen (Torrance et al., 2001; Smogorzewska et al., 2007). Individual shRNAs were packaged into retroviruses and infected into a 50:50 mixture of GFP+ DLD-1 Ras Mut cells and GFP (colorless) DLD-1 Ras WT cells. The relative ratio of Ras Mut versus WT cells at ˜7 days post shRNA infection was analyzed by FACS and compared to that of a mixed population infected with a negative control shRNA targeting luciferase (FIG. 8E). […] To rule out cell-line specific effect of candidate RSL shRNAs, candidates were tested using the competition assay in a second isogenic pair of colorectal cancer cell lines: HCT116 KRAS WT/G13D and HCT116 KRAS WT/−, which were derived with a similar method as the DLD-1 isogenic pair (Shirasawa et al., 1993; Torrance et al., 2001).
The competition assay used to test candidate genes from the screen was modified from a previous protocol (Torrance et al., 2001; Smogorzewska et al., 2007) and was carried out in 96-well plates in independent triplicates. For this assay, 1,000 each of GFP-labeled Ras Mut and unlabeled Ras WT cells were seeded in each well. For retroviral shRNA infection, cells were infected at an MOI of 1-5, selected for 3 days with puromycin and propagated for an additional 4-5 days before analyzed by FACS. An shRNA targeting firefly luciferase (shRNA-FF) was used as the negative control. For siRNA transfection, cells were transfected with siGenome siRNAs (Dharmacon) using Lipofectamine RNAiMAX (InVitrogen) and analyzed by FACS 5-6 days post transfection An siRNA targeting luciferase (Luc) was used as the negative control. […] Untreated wells were used as negative controls. To obtain normalized fitness of Ras Mut cells that can be compared across experiments, the percentage of Ras Mut cells in each sample was normalized to that in the control samples of that experiment.

The subject of assay [2] is HCT116 PI3K Mut cells vs PI3K WT cells. As to the kind of experiment: Competition assay, PI3K Mut vs PI3K WT cells. To be noted: HCT116 isogenic for the PI3K oncogene.
The test system of assay [3] is HCT116 Ras Mut cells vs HCT116 Ras WT cells. Description: Competition assay, GFP-labeled Ras Mut vs Ras WT cells, FACS. The conditions noted are these: HCT116 isogenic pair; drug present for 4-5 days. On the procedure:
Next, a competition assay was devised to test the reproducibility of candidate RSL shRNAs from the primary screen (Torrance et al., 2001; Smogorzewska et al., 2007). Individual shRNAs were packaged into retroviruses and infected into a 50:50 mixture of GFP+ DLD-1 Ras Mut cells and GFP (colorless) DLD-1 Ras WT cells. The relative ratio of Ras Mut versus WT cells at ˜7 days post shRNA infection was analyzed by FACS and compared to that of a mixed population infected with a negative control shRNA targeting luciferase (FIG. 8E). […] Without wishing to be bound by theory, a possible cause for the higher false positive rate in the primary screen might due to the fact that for the synthetic lethal analysis the difference between two microarray datasets is extracted and coupled with the fact that the secondary assay is much shorter than the original discovery assay. To rule out cell-line specific effect of candidate RSL shRNAs, candidates were tested using the competition assay in a second isogenic pair of colorectal cancer cell lines: HCT116 KRAS WT/G13D and HCT116 KRAS WT/−, which were derived with a similar method as the DLD-1 isogenic pair (Shirasawa et al., 1993; Torrance et al., 2001).
The competition assay used to test candidate genes from the screen was modified from a previous protocol (Torrance et al., 2001; Smogorzewska et al., 2007) and was carried out in 96-well plates in independent triplicates. For this assay, 1,000 each of GFP-labeled Ras Mut and unlabeled Ras WT cells were seeded in each well. For retroviral shRNA infection, cells were infected at an MOI of 1-5, selected for 3 days with puromycin and propagated for an additional 4-5 days before analyzed by FACS. An shRNA targeting firefly luciferase (shRNA-FF) was used as the negative control. For siRNA transfection, cells were transfected with siGenome siRNAs (Dharmacon) using Lipofectamine RNAiMAX (InVitrogen) and analyzed by FACS 5-6 days post transfection An siRNA targeting luciferase (Luc) was used as the negative control. For drug treatment, cells were treated with drugs for 4-5 days prior to FACS analysis. Untreated wells were used as negative controls. To obtain normalized fitness of Ras Mut cells that can be compared across experiments, the percentage of Ras Mut cells in each sample was normalized to that in the control samples of that experiment.

In assay [4] the test system is DLD-1 Ras Mut and Ras WT cells. As to the kind of experiment: Cell cycle and mitotic stage analysis (FACS, phospho-H3 Ser10, microscopy). To be noted: for G2/M arrest, Ras Mut vs Ras WT cells: DLD-1, synthetic lethal concentration of drug; for Prometaphase arrest of mitotic cells: DLD-1 Ras Mut vs Ras WT. On the procedure:
(§1) For cell cycle analysis, cells were ethanol fixed and stained with PI and analyzed using a BD LSR II FACS analyzer (BD Bioscience). Data analysis was carried out with BD FACS Diva and FlowJo softwares. Cell cycle synchronization by double thymidine block was based on a previous protocol (Steegmaier et al., 2007). Briefly, cells were arrested with two rounds of 20-hour thymidine (2.5 mM) treatment approximately 12 hours apart and released into mitosis. […] For one-step arrest in G2/M or in prometaphase, cells were treated overnight with either RO-3306 (10 μM) or the Eg5 kinesin inhibitor monastrol (100 μM), respectively. For mitotic entry experiments, cells were synchronized in RO-3306 (10 uM) overnight prior to release. For mitotic release experiments, cells were released from overnight synchronization in RO-3306 (10 uM) into nocodazole ([…]) for 4 hours and mitotic cells were collected by mitotic shake-off. Cells were then release by washing out the nocodazole. For the analysis of lagging chromosomes and mitotic index by microscopy, cells seeded onto coverslips were arrested in mitosis with 100 μM monastrol for 16 hours. Cells were washed and released into fresh media and were fixed at ten minute intervals for two hours in PHEM buffer+2% formaldehyde+0.5% triton-X100. Cells were immunostained with DAPI to visualized DNA and antibodies to phospho-histone H3 Ser10 (pH3S10) and to α-tubulin to identify mitotic cells at different stages. Independent triplicates with >100 cells per replicate were analyzed. For measuring mitotic index by FACS, cells were trypsinized, fixed with ethanol and stained with PI and pH3S10 antibody.

For assay [5], the system named is HCT116 Ras Mut and Ras WT cells. As to the method: as §1, with “Cells were immunostained with DAPI to visualized DNA and antibodies to phospho-histone H3 Ser10 (pH3S10) and to α-tubulin to identify mitotic cells at different stages.” left out, “For measuring mitotic index by FACS, cells were trypsinized, fixed with ethanol and stained with PI and pH3S10 antibody.” left out

Assay [6] concerns DLD-1 PI3K Mut cells vs PI3K WT cells. As to the kind of experiment: Competition assay, PI3K Mut vs PI3K WT cells. The conditions noted are these: DLD-1 isogenic for the PI3K oncogene.

Where a SMILES comes first, the peptide text is derived from it. The star is where a group is joined. Cbz = O=C(OCc1ccccc1)*

As for `CC(C)C[C@@H](C=O)NC(=O)[C@H](CC(C)C)NC(=O)[C@H](CC(C)C)NC(=O)OCc1ccccc1` [MG132] (Cbz-Leu-Leu-Leu-aldehyde), in assay [1], the “Viability/fitness of Ras Mut cells after transient treatment” value (“Viability/fitness of Ras Mut cells” below) is listed as “sufficient to selectively impair the viability of Ras Mut cells” and the “Fitness of Ras Mut cells relative to Ras WT cells (synthetic lethality with mutant Ras)” value was “selectively decreased the fitness of DLD-1 Ras Mut cells in a dose dependent fashion”. Also, the “Fitness of PI3K Mut cells vs PI3K WT cells” value (from here on “Fitness … vs PI3K WT cells”) in assay [2] was “very little difference”. In addition, in assay [3], the “Fitness of Ras Mut cells relative to Ras WT cells (synthetic lethality with mutant Ras)” value is recorded as “selectively decrease the fitness of HCT116 Ras Mut cells”. In addition, in assay [4], the “G2/M arrest, Ras Mut vs Ras WT cells” value is given as “more sensitive” and the “Prometaphase arrest of mitotic cells” value is recorded as “more profound prometaphase block of the Ras Mut cells”. The “Cell cycle accumulation of Ras Mut cells by FACS” value in assay [5] is on record as “preferentially induce the accumulation of Ras Mut HCT116 cells”. For the same compound, the “Fitness … vs PI3K WT cells” value in assay [6] was “more resistant to these inhibitors relative to DLD-1 PI3K WT cells”.
Turning to `N#CC(=C(/N)Sc1ccccc1N)/C(C#N)=C(\N)Sc1ccccc1N` [U0126], the “Fitness of Ras Mut cells relative to Ras WT cells (synthetic lethality with mutant Ras)” value in assay [1] was “At no concentration of these drugs was selective toxicity towards Ras Mut cells compared to Ras WT cells observed”.
`CC(C)C[C@H](NC(=O)[C@H](Cc1ccccc1)NC(=O)c1cnccn1)B(O)O` [bortezomib]: in assay [1], the “Viability/fitness of Ras Mut cells” value was “sufficient to selectively impair the viability of Ras Mut cells”. In addition, the “Fitness of Ras Mut cells relative to Ras WT cells (synthetic lethality with mutant Ras)” value is on record as “selectively decreased the fitness of DLD-1 Ras Mut cells in a dose dependent fashion” in assay [1] and “selectively decrease the fitness of HCT116 Ras Mut cells” in assay [3]. Also, the “Fitness … vs PI3K WT cells” value in assay [2] is given as “very little difference”; in assay [6] it was “more resistant to these inhibitors relative to DLD-1 PI3K WT cells”. In addition, in assay [4], the “G2/M arrest, Ras Mut vs Ras WT cells” value is on record as “more sensitive”. For the same compound, in assay [4], the “Prometaphase arrest of mitotic cells” value is “more profound prometaphase block of the Ras Mut cells”. Also, the “Cell cycle accumulation of Ras Mut cells by FACS” value in assay [5] was “preferentially induce the accumulation of Ras Mut HCT116 cells”.
For the compound `COC(=O)Nc1nc2ccc(C(=O)c3cccs3)cc2[nH]1` [nocodazole], the “Fitness of Ras Mut cells relative to Ras WT cells (synthetic lethality with mutant Ras)” value in assay [1] and in assay [3] was “no synthetic lethality with mutant Ras” each time.
For `CC(=O)O[C@H]1C(=O)[C@@]2(C)[C@H]([C@H](OC(=O)c3ccccc3)[C@]3(O)C[C@H](OC(=O)[C@H](O)[C@@H](NC(=O)c4ccccc4)c4ccccc4)C(C)=C1C3(C)C)[C@]1(OC(C)=O)CO[C@@H]1C[C@@H]2O` [paclitaxel], in assay [1], the “Viability/fitness of Ras Mut cells” value is on record as “sufficient to selectively impair the viability of Ras Mut cells” and the “Fitness of Ras Mut cells relative to Ras WT cells (synthetic lethality with mutant Ras)” value is “increased sensitivity”. Moreover, the “Fitness … vs PI3K WT cells” value in assay [2] is “very little difference”. The “Fitness of Ras Mut cells relative to Ras WT cells (synthetic lethality with mutant Ras)” value in assay [3] was “increased sensitivity”. Further, in assay [4], the “G2/M arrest, Ras Mut vs Ras WT cells” value is recorded as “strong G2/M arrest in Ras Mut cells but not in Ras WT cells” and the “Prometaphase arrest of mitotic cells” value is “striking pro-metaphase block in the Ras mutant cells”. Moreover, the “Fitness … vs PI3K WT cells” value in assay [6] is listed as “more resistant to these inhibitors relative to DLD-1 PI3K WT cells”.
